Key:
[1] = tested on: MRC-5 lung fibroblasts; assay: MTS cytotoxicity assay, 72 h, MRC-5 fibroblasts; type: cell-based, human; conditions: normal fibroblasts; for IC50: Homo sapiens, MRC5, 72 h
Procedure: (§1) Based on the preliminary results and tests of a larger library of known triterpenoids, a small set of 2-substituted lupane and 18α-oleanane derivatives was designed and synthesized. As the first step, the cytotoxic activity of the synthesized derivatives was assessed using an MTS assay following 72 h of treatment (Table 1). Selected cell lines A549 (lung adenocarcinoma) and DU-145 (prostate cancer) are both dependent on Hh signaling. In addition, K562 (chronic myelogenous leukemia) was included as a cell line sensitive to Hh inhibitors[32] and a type of hematological malignancy with active Hh signaling.[33] MRC-5 lung fibroblasts and BJ human skin fibroblasts cell lines were used to evaluate the toxicity against nontumor cells. Compounds were also tested using the standard panel of other cancer cell lines, as described in our earlier work (Table 1).[27]
(§2) The human prostate tumor-derived cell line DU145 was obtained from ATCC (American Type Culture Collection) and cultured in RPMI 1640 (Roswell Park Memorial Institute) medium supplemented with 10% (v/v) fetal bovine serum (FBS). Human prostate tumor-derived LNCaP cells were obtained from ATCC and cultured in RPMI 1640 medium supplemented with 10% FBS. The human nonsmall cell lung carcinoma (NSCLC)-derived cell line HOP-62 was obtained from the DSMZ (German Collection of Microorganisms and Cell Cultures) and cultured in RPMI 1640 medium supplemented with 10% FBS. The human nonsmall cell lung carcinoma-derived cell line NCI-H322 was obtained from ECACC (European Collection of Authenticated Cell Cultures) and cultured in RPMI 1640 medium supplemented with 10% FBS. The human nonsmall cell lung carcinoma-derived cell line NCI-H522 was obtained from ATCC and cultured in RPMI 1640 medium supplemented with 10% FBS. The human lung tumor-derived cell line A549 was obtained from ATCC and cultured in Dulbecco’s Modified Eagle’s Medium (DMEM) supplemented with 10% FBS. The human medulloblastoma-derived cell line DAOY was obtained from ATCC and cultured in Eagle’s Minimum Essential Medium (EMEM) supplemented with 10% FBS. The human glioblastoma-derived cell line T98G was obtained from ATCC and cultured in EMEM medium supplemented with 10% FBS, 1 mmol/L sodium pyruvate, and 1 mmol/L nonessential amino acid mixture. All the above-mentioned cell lines were cultured at 37 °C in an atmosphere of 5% CO2 with 95% humidity. The cytotoxicity MTS assays were performed using MTS (3-(4,5-dimethylthiazol-2-yl)-5-(3-carboxymethoxyphenyl)-2-(4-sulfophenyl)-2H-tetrazolium) tetrazolium salt. Briefly, cells were seeded in a 384-well transparent plate in a volume of 25 μL and a concentration of 15,000 cells/mL (DU145, LNCaP, HOP-62, A549, DAOY, T98G) or 30,000 cells/mL (NCI-H322, NCI-H522). The next day, cells were exposed to compounds in a concentration range of 50–0.0975 μmol/L (dilution factor 2) and cultured in the presence of the compounds for 72 h. After 72 h, 5 μL of MTS/phenazine methosulfate solution was pipetted into each well and incubation continued for 1–4 h. Finally, the absorbance at 490 nm was measured using an EnVision multifunctional modular reader (PerkinElmer). The IC50 value was determined using Dotmatics software.

[2] = tested on: K562-TAX; assay: MTS cytotoxicity assay, 72 h, K562-TAX; type: cell-based
Procedure: as §1, §2

[3] = tested on: HCT116 p53–/–; assay: MTS cytotoxicity assay, 72 h, HCT116 p53–/–; type: cell-based; conditions: Homo sapiens, HCT-116, 72 h
Procedure: as §1, §2

[4] = tested on: U2OS; assay: MTS cytotoxicity assay, 72 h, U2OS; type: cell-based; conditions: Homo sapiens
Procedure: as §1, §2

[5] = tested on: CCRF-CEM; assay: MTS cytotoxicity assay, 72 h, CCRF-CEM; type: cell-based; conditions: for IC50: Homo sapiens, CCRF-CEM, 72 h, MTS
Procedure: as §1, §2

[6] = tested on: BJ human skin fibroblasts; assay: MTS cytotoxicity assay, 72 h, BJ fibroblasts; type: cell-based; conditions: normal fibroblasts; for IC50: Homo sapiens, Skin fibroblast
Procedure: as §1, §2

[7] = tested on: DU-145 (prostate cancer); assay: MTS cytotoxicity assay, 72 h, DU-145; type: cell-based, human; conditions: Homo sapiens, DU-145, 72 h
Procedure: as §1, §2

[8] = tested on: K562 (chronic myelogenous leukemia); assay: MTS cytotoxicity assay, 72 h, K562; type: cell-based; conditions: Homo sapiens
Procedure: as §1, §2

[9] = tested on: CEM-DNR; assay: MTS cytotoxicity assay, 72 h, CEM-DNR; type: cell-based; conditions: Homo sapiens
Procedure: as §1, with “1).[27] […]” for “1).[27]”

[10] = tested on: HCT 116; assay: MTS cytotoxicity assay, 72 h, HCT 116; type: cell-based; conditions: Homo sapiens, HCT-116, 72 h
Procedure: as §1, §2

[11] = tested on: A549 (lung adenocarcinoma); assay: MTS cytotoxicity assay, 72 h, A549; type: cell-based; conditions: Homo sapiens, A549, 72 h
Procedure: as §1, §2

[12] = CCRF-CEM vs average of BJ and MRC-5, full Table S1
[13] = IC50 of CCRF-CEM line vs average of both fibroblasts (BJ and MRC-5), Table 1

| Structure (SMILES) | IC50 ([1]; full Table S1) [µM] | IC50 ([2]; full Table S1) [µM] | IC50 ([3]; full Table S1) [µM] | IC50 ([4]; full Table S1) [µM] | SI (selectivity index) [5, 12] | IC50 ([5]; full Table S1) [µM] | IC50 ([6]; full Table S1) [µM] | IC50 ([7]; full Table S1) [µM] | IC50 ([8]; full Table S1) [µM] | IC50 ([9]; full Table S1) [µM] | IC50 ([10]; full Table S1) [µM] | IC50 ([11]; full Table S1) [µM] | IC50 ([1]; Table 1) [µM] | IC50 ([2]; Table 1) [µM] | IC50 ([3]; Table 1) [µM] | IC50 ([4]; Table 1) [µM] | IC50 ([5]; Table 1) [µM] | IC50 ([6]; Table 1) [µM] | IC50 ([7]; Table 1) [µM] | IC50 ([8]; Table 1) [µM] | further results |
| --- | --- | --- | --- | --- | --- | --- | --- | --- | --- | --- | --- | --- | --- | --- | --- | --- | --- | --- | --- | --- | --- |
| C=C(C)[C@@H]1CC[C@]2(C(=O)OCc3ccccc3)CC[C@]3(C)C(CCC4[C@@]5(C)C=C(c6ccc(Cl)s6)C(=O)C(C)(C)C5CC[C@]43C)C12 (stereo partly shown) [Compound 10e] | > 50 | > 50 | > 50 | > 50 | > 1.0 | > 50 | > 50 | > 50 | > 50 | > 50 | > 50 | > 50 | – | – | – | – | – | – | – | – | – |
| CC1(C)C(=O)C(c2ccncc2)=C[C@@]2(C)C1CC[C@]1(C)C2CCC2C3[C@H]4OC[C@@]3(CCC4(C)C)CC[C@]21C (stereo partly drawn) [Compound 4h, 2-(Pyridine-4-yl)-19β,28-epoxyolean-1-en-3-one] | – | 18.1 | – | – | – | 18.7 | – | 22.1 | – | – | – | – | > 50 | 18 | > 50 | > 50 | 19 | > 50 | 22 | > 50 | SI (selectivity index) [5, 13]: >2.7; IC50 ([9]; Table 1): 19 µM; IC50 ([10]; Table 1): > 50 µM; IC50 ([11]; Table 1): > 50 µM |
| C=C(C)[C@@H]1CC[C@]2(C(=O)O)CC[C@]3(C)C(CCC4[C@@]5(C)C=C(c6cccnc6)C(=O)C(C)(C)C5CC[C@]43C)C12 (stereo partly shown) [Compound 11g, 2-(Pyridin-3-yl)-3-oxolupa-1,20(29)-dien-28-oic acid] | – | – | 39.6 | 44.4 | – | 18.1 | – | 11.1 | – | 20.5 | 33.5 | 34.8 | > 50 | 20 | 40 | 44 | 18 | > 50 | 11 | > 50 | IC50 MRC-5 ([1]; Table 1): below the detection limit; SI (selectivity index) [5, 13]: >2.8; IC50 BJ ([6]; Table 1): below the detection limit; IC50 ([9]; Table 1): 21 µM; IC50 ([10]; Table 1): 34 µM; IC50 ([11]; Table 1): 35 µM |
| CC1(C)C(=O)C(c2cncc3ccccc23)=C[C@@]2(C)C1CC[C@]1(C)C2CCC2C3[C@H]4OC[C@@]3(CCC4(C)C)CC[C@]21C (stereo partly drawn) [Compound 4l, 2-(Isoquinolin-4-yl)-19β,28-epoxyolean-1-en-3-one] | – | – | – | – | – | – | – | 32.1 | – | – | – | – | > 50 | > 50 | > 50 | > 50 | > 50 | > 50 | 32 | > 50 | IC50 ([9]; Table 1): > 50 µM; IC50 ([10]; Table 1): > 50 µM; IC50 ([11]; Table 1): > 50 µM |
| CC1(C)C(=O)C(c2cccs2)=C[C@@]2(C)C1CC[C@]1(C)C2CCC2C3[C@H]4OC[C@@]3(CCC4(C)C)CC[C@]21C (stereo partly drawn) [Compound 4c, 2-(Thiophene-2-yl)-19β,28-epoxyolean-1-en-3-one] | > 50 | > 50 | > 50 | > 50 | > 1.0 | > 50 | > 50 | > 50 | > 50 | > 50 | > 50 | > 50 | – | – | – | – | – | – | – | – | – |
| C=C(C)[C@@H]1CC[C@]2(C(=O)OCc3ccccc3)CC[C@]3(C)C(CCC4[C@@]5(C)C=C(c6ccco6)C(=O)C(C)(C)C5CC[C@]43C)C12 (stereo partly shown) [Compound 10a, Benzyl 2-(2-Furanyl)-3-oxolupa-1,20(29)-dien-28-oate] | > 50 | > 50 | > 50 | > 50 | > 1.0 | > 50 | > 50 | > 50 | > 50 | > 50 | > 50 | > 50 | – | – | – | – | – | – | – | – | – |
| C=C(C)[C@@H]1CC[C@]2(C(=O)OCc3ccccc3)CC[C@]3(C)C(CCC4[C@@]5(C)C=C(c6ccc7cn[nH]c7c6)C(=O)C(C)(C)C5CC[C@]43C)C12 (stereo partly shown) [Compound 10n, Benzyl 2-(Indazol-6-yl)-3-oxolupa-1,20(29)-dien-28-oate] | > 50 | > 50 | > 50 | > 50 | > 1.0 | > 50 | > 50 | > 50 | > 50 | > 50 | > 50 | > 50 | – | – | – | – | – | – | – | – | – |
| C=C(C)[C@@H]1CC[C@]2(C(=O)OCc3ccccc3)CC[C@]3(C)C(CCC4[C@@]5(C)C=C(c6ccc7[nH]ccc7c6)C(=O)C(C)(C)C5CC[C@]43C)C12 (stereo partly shown) [Compound 10m, Benzyl 2-(Indol-5-yl)-3-oxolupa-1,20(29)-dien-28-oate] | > 50 | > 50 | > 50 | > 50 | > 1.0 | > 50 | > 50 | > 50 | > 50 | > 50 | > 50 | > 50 | – | – | – | – | – | – | – | – | – |
| C=C(C)[C@@H]1CC[C@]2(C(=O)OCc3ccccc3)CC[C@]3(C)C(CCC4[C@@]5(C)C=C(c6ccoc6)C(=O)C(C)(C)C5CC[C@]43C)C12 (stereo partly shown) [Compound 10b, Benzyl 2-(3-Furanyl)-3-oxolupa-1,20(29)-dien-28-oate] | > 50 | > 50 | > 50 | > 50 | > 1.0 | > 50 | > 50 | > 50 | > 50 | > 50 | > 50 | > 50 | – | – | – | – | – | – | – | – | – |
| C=C(C)[C@@H]1CC[C@]2(C(=O)O)CC[C@]3(C)[C@H](CC[C@@H]4[C@@]5(C)CC[C@H](O)C(C)(C)[C@@H]5CC[C@]43C)[C@@H]12 [Betulinic acid 5, betulinic acid, reference compound] | – | 14.1 | – | – | – | – | – | – | – | – | – | – | 28 | 14 | 16 | 21 | 8.1 | 24 | 9.6 | 4.3 | SI (selectivity index) [5, 13]: 3.2; IC50 ([9]; Table 1): 14 µM; IC50 ([10]; Table 1): 16 µM; IC50 ([11]; Table 1): 9.4 µM |
| C=C(C)[C@@H]1CC[C@]2(C(=O)OCc3ccccc3)CC[C@]3(C)C(CCC4[C@@]5(C)C=C(c6ccc7c(c6)OCCO7)C(=O)C(C)(C)C5CC[C@]43C)C12 (stereo partly shown) [Compound 10j, Benzyl 2-(1,4-Benzodioxan)-3-oxolupa-1,20(29)-dien-28-oate] | > 50 | > 50 | > 50 | > 50 | > 1.0 | > 50 | > 50 | > 50 | > 50 | > 50 | > 50 | > 50 | – | – | – | – | – | – | – | – | – |

Source: article PMC11923649, “Novel C-2 Aromatic Heterocycle-Substituted Triterpenoids Inhibit Hedgehog Signaling in GLI1 Overexpression Cancer Cells” (ACS Omega, 2025)
